Data taken from PMC12476894, “Identification of α‑Azacyclic Acetamide-Based Inhibitors of P. falciparum Na^+ Pump (PfATP4) with Fast-Killing Asexual Blood-Stage Antimalarial Activity by Phenotypic Screening” (ACS Infectious Diseases, 2025).
Read-outs that look alike come from different tables or passages of the source.

Columns and labels:
[1] = test system: P. falciparum NF54^luc parasites; assay: 72 h SYBR Green growth inhibition, PfNF54^luc; format: cell-based; settings: Plasmodium falciparum
[2] = test system: P. falciparum NF54^luc parasites; assay: Luciferase reporter (LR) / BRRoK assay, PfNF54^luc; format: cell-based, Plasmodium falciparum; settings: for EC50: Plasmodium falciparum, NF54, Hec50, luciferase reporter
[3] = test system: P. falciparum NF54^luc parasites; assay: Luciferase reporter (LR) / BRRoK assay, PfNF54^luc; format: cell-based; settings: Plasmodium falciparum, NF54, Hec50, 72 h
Dd2-B2 (PfATP4^WT) = assay: Drug susceptibility assay for cross-resistance profiling (Fidock Lab), parental line; format: cell-based, Plasmodium falciparum; settings: for EC50: Plasmodium falciparum
Dd2^L350H (PfATP4^L350H) = assay: Drug susceptibility assay for cross-resistance profiling (Fidock Lab), L350H; format: cell-based, Plasmodium falciparum; settings: Table 3 data set
Dd2^P412L (PfATP4^P412L) = assay: Drug susceptibility assay for cross-resistance profiling (Fidock Lab), P412L; format: cell-based, Plasmodium falciparum; settings: Table 3 data set
[4] = test system: Pf3D7 trophozoites, pHcyt (PfATP4 and other plasma membrane transporters); parameters: method as in previous study; settings: all conditions, versus solvent control 0.1% DMSO; ref previous study; cited from earlier work
[5] = test system: P. falciparum 3D7 parasites (Pf3D7); assay: 72 h SYBR Green growth inhibition, ABS P. falciparum 3D7 (Phillips Lab); format: cell-based, Plasmodium falciparum; settings: for EC50: 72 h SYBR Green assay, mean ± SEM (n); for reduction of activity relative to 2 / activity of analogs relative to parent 2 or 3 (in words): P. falciparum 3D7 and Dd2 parasites; for reduction of activity relative to 2: analogs of 2
[6] = test system: P. falciparum Dd2 (PfDd2) parasites; assay: 72 h SYBR Green growth inhibition, ABS P. falciparum Dd2 (Phillips Lab); format: cell-based, Plasmodium falciparum; settings: read-out: PfDd2 EC50
PfD10 attB = assay: 72 h SYBR Green growth inhibition, PfD10 attB; format: cell-based; settings: Plasmodium falciparum; 72 h SYBR Green assay
[7] = test system: Dd2 PfATP4^P412L mutant clones; assay: 72 h SYBR Green growth inhibition, 2-selected Dd2 clones with PfATP4 P412L (Phillips Lab); format: cell-based, Plasmodium falciparum
Procedure: (§1) To confirm the MOA for the α-azacyclic acetamides against P. falciparum and to obtain potential information about whether or not they bind PfATP4 at an overlapping site with that of KAE609, we undertook resistance selections using PfDd2 parasites using the published cycling drug selection method. , α-Azacyclic acetamides 2 and 3 were chosen as representative examples of the pyrrole- and indole-based series, respectively. […] Additional cycles were performed at 20 × EC50, until resistant parasites were detected based on a fold change in EC50 compared to the parental clonal Dd2 line (Table S3). Resistant parasites were detected in the 2-selections in all 4 flasks after 4 pulses and for 3-selections in 3 flasks after 5 pulses. Clonal lines were generated from each flask, and one clone per flask was selected for WGS and EC50 determination (Tables S4 and S5). WGS analysis identified two single point mutations in PfATP4 that were not present in the original clonal Dd2 parasite line (Tables and S4). P412L was found in three of four flasks containing 2-selected resistance clones, and F917L was identified in all three flasks containing 3-selected clones and in the fourth flask containing 2-selected clones (Table S4). PfATP4 mutations identified by the WGS analysis in parasite lines were verified by PCR of the pfatp4 gene, followed by Sanger sequencing (Figures S5, S6 and Table S6). An additional protein coding gene (ribosomal protein S8e) was mutated in the 2-selections. However, this mutation was identified in only one of four sequenced clones and is therefore unlikely to be related to resistance to 2 (Figure S7). All three resistant clones derived from the 3-selections harbored an identical mutation in a gene (pfcpu) encoding a conserved protein of unknown function, which was absent in the parental line (Figure S8).
(§2) ABS P. falciparum 3D7, Dd2 or PfNF54^luc parasites (BEI resources) were cultured in RPMI 1640 medium (Millipore Sigma), supplemented with 25 mM HEPES, 0.5% Albumax-I (Thermo Scientific), 23 mM sodium bicarbonate, 92 μM hypoxanthine, and 10 μg/mL gentamicin sulfate at 37 °C, 5% CO2, using deidentified O^+ red blood cells (BioIVT) as previously described. − Growth inhibition assays were conducted in 96 well plate format using the SYBR Green or luciferase reporter assay depending on the strain with modifications as described , (see Supporting Information for a detailed description). Details for the luciferase reporter assay are described below under the BRRoK assay section.
(§3) EC50 and CC50 values were determined by nonlinear regression performed in GraphPad Prism Version 10. Unless otherwise specified, data were fitted to the log(inhibitor) vs response–variable slope with four parameters equation. […] For mutant cell lines and compound combinations where bottom plateau of zero growth was not reached, the bottom of the curve was defined at 0% based on background values obtained for parental Dd2 from the same study.
(§4) Resistant Dd2 parasites were selected using a high-pressure intermittent selection protocol using a previously described method. Selections were set up using 4 flasks per compound starting with approximately 3 × 10^9 parasites per flask (80 mL per flask, 4% hematocrit, 3% parasitemia at the beginning of each pulse, mostly ring-stage parasites via previous sorbitol synchronization. Pulse 1 and 2 (48 h) were conducted at 10xEC50, and subsequent pulses were conducted at 20xEC50. Parasites cleared within 48 h under these conditions. 3-Selections used a total of 4 pulses, while 2-selections required 5 pulses before resistant parasites emerged (Table S3). Culture media was replenished daily for a week after each pulse, then every 2 days with weekly replenishment of blood. Cultures were monitored by microscopy until recrudescence. Clonal parasites were obtained from each flask by limiting dilution and maintained in drug free RPMI-1640 media prior to being analyzed for EC50 shifts. […]

[8] = test system: Dd2 PfATP4^F917L mutant clones; assay: 72 h SYBR Green growth inhibition, 2- or 3-selected Dd2 clones with PfATP4 F917L (Phillips Lab); format: cell-based, Plasmodium falciparum
Procedure: as §1, §2, §3, §4

[9] = test system: Pf3D7 trophozoite-stage parasites, cytosolic pH (pHcyt); cell-based assay for ATP4 inhibition; assay: P. falciparum cytosolic dose response pH assay (BCECF, with concanamycin A)
[10] = 72 h SYBR Green assay, read-out: PfNF54^luc EC50
[11] = Plasmodium falciparum, DD2, 15-selected line
[12] = Plasmodium falciparum, DD2, 72 h
[13] = 72 h SYBR Green assay, mean ± SEM (n)

SMILES: C[C@@H]1CC[C@H]2[C@@H](C)C(=O)O[C@@H]3O[C@@]4(C)CC[C@@H]1[C@]32OO4 [ART, artemisinin, reference compound]
- EC50 [1, 10]: 10 nM
- EC50 ([1]; 72 h SYBR Green, as listed in supplementary methods, read-out: EC50 values used for BRRoK concentration range (72h SYBR Green assay vs PfNF54luc)): 9.7 nM
- EC50 ([2]; 6 h): 80 nM
- 6 h EC50 relative to 72 h SYBR Green and LR EC50 ([2]; higher at 6 h): 10–20 fold
- EC50 [3]: 4 nM

SMILES: C[C@H]1[C@@H](O)O[C@@H]2O[C@@]3(C)CC[C@H]4[C@H](C)CC[C@@H]1[C@@]24OO3 [DHA, dihydroartemisinin, reference compound]
- EC50 (Dd2-B2 (PfATP4^WT); DD2, 72 h, read-out: EC50, Dd2-B2): 2 ± 0.09 nM
- EC50 (Dd2^L350H (PfATP4^L350H); [11]): 2.4 ± 0.23 nM
- EC50 fold-change vs Dd2-B2, Dd2^L350H (Dd2^L350H (PfATP4^L350H)): 1.2 fold
- EC50 (Dd2^P412L (PfATP4^P412L); [11]): 2.7 ± 0.15 nM
- EC50 fold-change vs Dd2-B2, Dd2^P412L (Dd2^P412L (PfATP4^P412L)): 1.4 fold
- pH fingerprint traces (in words) [4]: overlapped with those of the solvent control

SMILES: Cc1cc(Nc2ccc(S(F)(F)(F)(F)F)cc2)n2nc(C(C)(F)F)nc2n1 [DSM265, reference compound]
- EC50 ([5]; Plasmodium falciparum, 3D7): 0.0066 ± 0.00036 µM
- EC50 [6, 12]: 0.0086 ± 0.00036 µM
- EC50 [1, 10]: 8.6 ± 0.3 nM
- BRRoK assay, luciferase activity after 6 h treatment (kill rate, in words) ([2]; 6 h, 47x to 0.04x EC50): did not reduce parasite levels in the 6 h treatment window
- EC50 ([2]; 6 h): > 240 nM
- EC50 (PfD10 attB): 12 nM
- EC50 ([7]; Plasmodium falciparum, DD2, read-out: EC50, 2-selected flask #3 clone F5): 8.5 ± 1.4 nM
- Fold EC50 change compared to WT Dd2, 2-selected flask #3 clone F5 ([7]; {}): 0.99 fold
- EC50 ([8]; Plasmodium falciparum, DD2, read-out: EC50, 3-selected flask #3 clone D8): 7.3 ± 0.13 nM
- Fold EC50 change compared to WT Dd2, 3-selected flask #3 clone D8 ([8]; {}): 0.85 fold
- EC50 [3]: 6.8 ± 0.69 nM
- effect on parasite cytosolic pH (pHcyt) in presence of CMA (in words) ([9]; Pf3D7, CMA 50 nM): no impact on pH
- EC50 ([9]; Plasmodium falciparum, read-out: Pf3D7 pH EC50): > 400 nM

SMILES: N#Cc1cc(NC(=O)[C@H]2c3ccccc3C(=O)N(CC(F)(F)F)[C@@H]2c2cccnc2)ccc1F [SJ733]
- EC50 (Dd2-B2 (PfATP4^WT); DD2, read-out: EC50, Dd2-B2): 130 nM
- Fold change, Dd2-B2 (Dd2-B2 (PfATP4^WT); parent, Table S8): 1 fold

SMILES: O=C1C(O)=C([C@H]2CC[C@H](c3ccc(Cl)cc3)CC2)C(=O)c2ccccc21 [atovaquone]
- pH fingerprint traces (in words) [4]: overlapped with those of the solvent control

SMILES: CCN(CC)CCCC(C)Nc1ccnc2cc(Cl)ccc12 (stereo not shown) [chloroquine]
- pH fingerprint traces (in words) [4]: overlapped with those of the solvent control

SMILES: Cc1ccc(NC(=O)Cn2cccc2-c2nc(-c3ccccc3)cs2)nc1 [compound 5, N-(5-methylpyridin-2-yl)-2-[2-(4-phenyl-1,3-thiazol-2-yl)-1H-pyrrol-1-yl]acetamide]
- EC50 [5]: 10 ± 0.03 µM
- reduction of activity relative to 2 [5]: 10–20 fold
- EC50 [6, 13]: 9.6 ± 0.44 µM

SMILES: Cc1cccc(NC(=O)Cn2cccc2-c2nc(-c3ccccc3)cs2)n1 [compound 6, N-(6-methylpyridin-2-yl)-2-[2-(4-phenyl-1,3-thiazol-2-yl)-1H-pyrrol-1-yl]acetamide]
- EC50 [5]: 15 ± 0.87 µM
- reduction of activity relative to 2 [5]: 10–20 fold
- EC50 [6, 13]: 12 ± 1.1 µM

SMILES: Cc1ccnc(NC(=O)Cn2cccc2-c2nc(-c3ccc(Cl)cc3)cs2)c1 [compound 7, 2-(2-(4-(4-chlorophenyl)-1,3-thiazol-2-yl)-1H-pyrrol-1-yl}-N-(4-methylpyridin-2-yl)acetamide]
- EC50 [5]: 15 ± 2.4 µM
- reduction of activity relative to 2 [5]: 10–20 fold
- EC50 [6, 13]: 14 ± 0.58 µM

SMILES: Cc1cccnc1NC(=O)Cn1cccc1-c1nc(-c2ccc(Cl)cc2)cs1 [compound 8, 2-(2-(4-(4-chlorophenyl)-1,3-thiazol-2-yl)-1H-pyrrol-1-yl)-N-(3-methylpyridin-2-yl)acetamide]
- EC50 [5]: > 30 µM
- activity of analogs relative to parent 2 or 3 (in words) [5]: complete loss of activity
- EC50 [6, 13]: > 30 µM

SMILES: Cc1cccc(NC(=O)Cn2cccc2-c2nc(-c3ccccc3)cs2)c1 [compound 9, N-(3-methylphenyl)-2-[2-(4-phenyl-1,3-thiazol-2-yl)-1H-pyrrol-1-yl]acetamide]
- reduction of activity relative to 2 [5]: 2 fold
- EC50 ([5]; Plasmodium falciparum, 3D7): 2.8 ± 0.17 µM
- EC50 [6, 12]: 1.7 ± 0.038 µM

SMILES: O=C(Cn1cccc1-c1nc(-c2ccccc2)cs1)Nc1cccc(Cl)c1 [compound 10, N-(3-chlorophenyl)-2-[2-(4-phenyl-1,3-thiazol-2-yl)-1H-pyrrol-1-yl]acetamide]
- EC50 [5]: 1.6 ± 0.33 µM
- activity of analogs relative to parent 2 or 3 (in words) [5]: activity was restored
- EC50 [6, 13]: 0.98 ± 0.082 µM

SMILES: O=C(Cn1cccc1-c1nc(-c2ccc(Cl)cc2)cs1)N1CCc2ccccc21 [compound 11, 2-(2-(4-(4-chlorophenyl)-1,3-thiazol-2-yl)-1H-pyrrol-1-yl)-1-(2,3-dihydro-1H-indol-1-yl)ethan-1-one]
- EC50 [5]: > 30 µM
- activity of analogs relative to parent 2 or 3 (in words) [5]: complete loss of activity
- EC50 [6, 13]: > 30 µM

SMILES: CC(=O)c1cn(C(C)C(=O)NCCn2nc(C)c(Cl)c2C)c2ccccc12 (stereo not shown) [compound 12, 2-(3-acetyl-1H-indol-1-yl)-N-[2-(4-chloro-3,5-dimethyl-1H-pyrazol-1-yl)ethyl]propenamide]
- EC50 [5]: > 30 µM
- activity of analogs relative to parent 2 or 3 (in words) [5]: loss of activity
- EC50 [6, 13]: > 30 µM

SMILES: O=C(Cn1ccc2ccccc21)NCCn1cccn1 [compound 13, 2-(1H-indol-1-yl)-N-[2-(1H-pyrazol-1-yl)ethyl]acetamide]
- EC50 [5]: > 30 µM
- activity of analogs relative to parent 2 or 3 (in words) [5]: loss of activity
- EC50 [6, 13]: > 30 µM

SMILES: Cc1cc(N)n(CC(=O)NCCn2c(C)cc3ccccc32)n1 [compound 14, 2-(5-amino-3-methyl-1H-pyrazol-1-yl)-N-[2-(2-methyl-1H-indol-1-yl)ethyl]acetamide]
- EC50 [5]: > 30 µM
- activity of analogs relative to parent 2 or 3 (in words) [5]: loss of activity
- EC50 [6, 13]: > 30 µM
